# According to paper PMC8152265, “Seconeolitsine, the Novel Inhibitor of DNA Topoisomerase I, Protects against Invasive Pneumococcal Disease Caused by Fluoroquinolone-Resistant Strains” (Antibiotics, 2021):
# Where two headings read alike, the source gives them in different places.
# Legend:
# [1] = system: S. pneumoniae isolate CipR5 (serotype 33F); test: MIC by broth microdilution, isolate CipR5; type: cell-based, Streptococcus pneumoniae; settings: AGCH medium, 18–24 h
# Procedure: (§1) Bacteria were grown in Todd-Hewitt broth supplemented with 0.5% yeast extract (Difco) to an optical density at 580 nm (OD580) of 0.4 to 0.5 corresponding to ca. 10^8 CFU/mL. Single-use aliquots were stored at −80 °C in 10% glycerol to use in mice infections as previously described. Antimicrobial susceptibility was tested by broth microdilution, according to the Clinical and Laboratory Standards Institute guidelines. S. pneumoniae R6 was included as a quality control. Powders of known potency of LVX and MXF were purchased from Sigma. SCN was synthesized as previously described. Briefly, for MIC determination, pneumococcal strains were grown in a casein hydrolysate-based medium with 0.3% sucrose as an energy source (AGCH medium). A 96-well plate was used including broth containing different concentrations of antibiotics. Plates were inoculated with a standardized suspension of the pneumococcal strains followed by incubation at 37 °C with 5% CO2 for 18–24 h. The minimal inhibitory concentrations (MICs) were determined by observing the lowest concentration of the agent that inhibited visible growth of the bacterium.
# [2] = system: S. pneumoniae isolate CipR15 (serotype 16F); test: MIC by broth microdilution, isolate CipR15; type: cell-based, Streptococcus pneumoniae; settings: AGCH medium, 18–24 h
# Procedure: as §1
# [3] = system: S. pneumoniae isolate CipR45 (serotype 8); test: MIC by broth microdilution, isolate CipR45; type: cell-based, Streptococcus pneumoniae; settings: isolate CipR45, serotype 8, low-level FQ-resistant, AGCH medium, 18–24 h
# Procedure: as §1
# [4] = system: S. pneumoniae isolate CipR57 (serotype 8); test: MIC by broth microdilution, isolate CipR57; type: cell-based, Streptococcus pneumoniae; settings: isolate CipR57, serotype 8, high-level FQ-resistant, AGCH medium, 18–24 h
# Procedure: as §1
# [5] = system: S. pneumoniae isolate CipR72 (serotype 15A); test: MIC by broth microdilution, isolate CipR72; type: cell-based, Streptococcus pneumoniae; settings: AGCH medium, 18–24 h
# Procedure: as §1
# [6] = system: S. pneumoniae isolate CipR45; test: Mouse sepsis model, survival after infection with CipR45; type: in vivo, Streptococcus pneumoniae; settings: mice infected i.p. with CipR45
# Procedure: (§2) BALB/c female mice (8–12 weeks old) weighing 20 g were purchased from Harlan Laboratories (Barcelona, Spain). […] Different concentrations of antibiotic (10, 20, and 40 mg/kg for SCN; 12.5, 25, and 50 mg/kg for LVX) were administered two times a day over 48 h by the subcutaneous route. The doses, interval, and schedule chosen were based in previous studies investigating the protective activity of FQs against pneumococcal sepsis in mice. Seconeolitsine stock solution was dissolved in dimethyl sulfoxide (DMSO) and the doses tested for protection in animals were prepared in PBS containing 1% DMSO. Animals in the lethal control groups were infected with S. pneumoniae and received the antibiotic solvent (PBS−1% DMSO) instead of SCN or LVX. The toxicity control for each antibiotic (no infection group) only received SCN or LVX. Animal experiments were performed in groups of at least 5 mice and were repeated twice.
# [7] = system: S. pneumoniae isolate CipR57; test: Mouse sepsis model, survival after infection with CipR57; type: in vivo, Streptococcus pneumoniae; settings: for survival within the first 48 h post-infection / survival at 36 h post-infection: mice infected i.p. with CipR57; for survival within the first 48 h post-infection: any concentration investigated (12.5 to 50 mg/kg s.c. every 12 h)
# Procedure: as §2
# [8] = system: S. pneumoniae isolate CipR57; test: Bacterial counts in blood of mice infected with CipR57; type: in vivo, Streptococcus pneumoniae; settings: for effect on bacterial load in blood compared to the untreated group: 24 and 48 h post-infection, LVX 25 and 50 mg/kg, SCN different doses; for bacterial levels in blood at 24 h: 24 h post-infection; for bacteria in blood at 48 h: 48 h post-infection
# Procedure: Bacteremic profiles (colony counts in blood) were determined from mice treated with SCN and LVX, at 24 h and 48 h post-infection, when the majority of mice were alive. To collect blood samples, volumes of 6 µl were obtained from the tail vein, as previously described, resuspended in PBS and plated onto blood agar plates at 37 °C in 5% CO2 for colony counts determination.
# [9] = Serum pharmacokinetics in non-infected mice after single subcutaneous dose; type: in vivo, BALB/c mice
# Procedure: Groups of two mice for each antibiotic and time-point were treated with a single subcutaneous dose of 40 mg/kg of SCN or 50 mg/kg of LVX. Blood samples were collected at 15 and 30 min and 1, 2, 4, 6, 8, 10, 12, 14, 18, and 24 h, centrifuged for 10 minutes at 2000 rpm, and the sera from the different mice were stored at −80 °C until drug assay determination.
# Seconeolitsine concentrations were measured by high-pressure liquid chromatography analysis (HPLC). Chromatographic separation was performed using SunFire C18 column (150 × 4.6 mm; Waters Corporation, MA, USA) with trifluoroacetic acid and acetonitrile in the ratio 70:30 (vol./vol.) as the mobile phase. The solvent flow rate was 1.0 mL/min with a runtime of 20 minutes. The mobile phase was filtered through 0.45 µm prior to use. Standards ranging from 0−1.000 µg/mL were prepared in HPLC grade methanol. Sample dilutions, prepared in mouse serum, were injected into the column at a constant volume of 20 µl and were tested in duplicate. The detection wavelength was 270 by UV absorbance using a Waters UV–Visible 2489 module (Waters Corporation). The column was maintained at room temperature.
# Plates containing a lawn of microorganism were incubated for 18–24 h at 37 °C. Standards and dilutions were prepared in mouse serum in a range from 0.03–8 µg/ mL.
# Pharmacokinetic (PK) parameters measured included peak level (Cmax), time peak level (Tmax), area under the concentration time-curve from 0 to last (Clast) measured concentration (AUClast), and elimination half-life (t1/2). These parameters were estimated for both the total concentrations and the free fraction concentrations and were determined by using protein binding values, by a non-compartmental approach with the Phoenix WinNonlin program (version 6.2, Certara, NJ, USA). […] T>MIC for total and unbound concentrations (fT>MIC) were determined by a non-compartmental approach for PD data (Phoenix WinNonlin, model 220).
# plasma proteins = test: Protein binding by ultrafiltration; type: in vitro ADME; settings: murine plasma
# Procedure: Binding to serum proteins was determined by the ultrafiltration method (36) using the Centrifree micropartition system (Amicon Bioseparations, Millipore, Tullagreen, Ireland) with concentrations in murine plasma of 1 and 50 μg/mL for SCN and 5 and 50 μg/mL for LVX. Pre-filtered samples and ultrafiltrates recovered were measured by HPLC or bioassay, as described above. Percentage of SCN or LVX bound to proteins in mouse serum was calculated using the expression: [antibiotic in pre−filtered samples] − [antibiotic in ultrafiltrated samples]/[antibiotic in pre-filtered samples] × 100 as previously described.
# S. pneumoniae Topo I = system: S. pneumoniae Topo I; design: method as in PMID 21169356; settings: cited from earlier work
# S. pneumoniae = system: S. pneumoniae; design: method as in PMID 21169356; settings: cited from earlier work
# human cell = system: human cell; design: method as in PMID 21169356; settings: cited from earlier work
# [10] = Toxicity control, non-infected mice; type: in vivo, BALB/c mice; settings: 40 mg/kg, largest concentration used; 7 days of follow-up
# Procedure: as §2
# Hydrosolubility = type: physicochemical; settings: data not shown
# [11] = Streptococcus pneumoniae, read-out: MIC
# [12] = BALB/c, mouse, in vivo, sc, 50 mg/kg
# [13] = mouse serum, single s.c. dose 40 mg/kg (seconeolitsine) or 50 mg/kg (levofloxacin)
smiles,measurement,setting,value
"O=C(O)c1cn(C2CC2)c2cc(N3CCNCC3)c(F)cc2c1=O [CIP, ciprofloxacin]",MIC,[1]; [11],16 mg/L
same,MIC,[2]; [11],32 mg/L
same,MIC,[3]; [11],4 mg/L
same,MIC,[4]; [11],64 mg/L
same,MIC,[5]; [11],64 mg/L
"C[C@H]1COc2c(N3CCN(C)CC3)c(F)cc3c(=O)c(C(=O)O)cn1c23 [Levofloxacin, levofloxacin]",MIC,[1]; [11],8 mg/L
same,MIC,[2]; [11],16 mg/L
same,MIC,[3]; [11],2 mg/L
same,MIC,[4]; [11],16 mg/L
same,MIC,[5]; [11],32 mg/L
same,survival at 36 h post-infection,[6]; 12.5 mg/kg s.c. every 12 h over 48 h,40%
same,survival at 36 h post-infection,[6]; 25 mg/kg s.c. every 12 h over 48 h,80%
same,survival at 36 h post-infection,[6]; 50 mg/kg s.c. every 12 h over 48 h,100%
same,survival at 78 h post-treatment,[6]; 12.5 to 50 mg/kg s.c. every 12 h over 48 h,all mice succumbed to the infection
same,survival within the first 48 h post-infection,[7],all died within the first 48 h
same,survival within the first 48 h post-infection,[7]; listed as LVX,all the animals died within the first 48 h post-infection
same,effect on bacterial load in blood compared to the untreated group,[8],did not reduce bacterial levels in blood
same,bacterial levels in blood at 24 h,[8],around 10^8 CFU/mL
same,bacteria in blood at 48 h,[8],High levels of bacterial counts
same,Cmax,[9]; [12],14.7 ± 0.7 µg/mL
same,Tmax,[9]; [12],15 min
same,half-life,[9]; [12],42 min
same,AUC(0-t),"[9]; BALB/c, mouse, in vivo, sc, 50 mg/kg, AUC0-12h",17.3 ± 1.5 µg·h/mL
same,AUC(0-t),"[9]; BALB/c, mouse, in vivo, sc, 50 mg/kg, AUC0-24h",34.6 ± 2.9 µg·h/mL
same,binding to plasma proteins,plasma proteins; 5 µg/mL,12%
same,binding to plasma proteins,plasma proteins; 50 µg/mL,33%
"COc1c(N2C[C@@H]3CCCN[C@@H]3C2)c(F)cc2c(=O)c(C(=O)O)cn(C3CC3)c12 [MXF, moxifloxacin]",MIC,[1]; [11],2 mg/L
same,MIC,[2]; [11],4 mg/L
same,MIC,[3]; [11],0.25 mg/L
same,MIC,[4]; [11],4 mg/L
same,MIC,[5]; [11],4 mg/L
CN(C)CCc1cc2c(c3c1ccc1cc4c(cc13)OCO4)OCO2 [N-methyl-seconeolitsine],concentration inhibiting S. pneumoniae Topo I activity in vitro,S. pneumoniae Topo I,~ 10 µM
same,concentration inhibiting cell growth,S. pneumoniae,~ 10 µM
same,effect on human cell viability,human cell,without affecting human cell viability
"CNCCc1cc2c(c3c1ccc1cc4c(cc13)OCO4)OCO2 [Seconeolitsine, seconeolitsine]",MIC,[1],5.2 mg/L
same,MIC,[2],2.6 mg/L
same,MIC,[3],5.2 mg/L
same,MIC,[4],2.6 mg/L
same,MIC,[5],5.2 mg/L
same,survival at 36 h post-infection,[7]; 20 mg/kg s.c. every 12 h over 48 h,60%
same,survival at 36 h post-infection,[7]; 40 mg/kg s.c. every 12 h over 48 h,70%
same,protection at 48 h,"[7]; mice infected with a serotype 8-resistant strain, 40 mg/kg every 12 h during two days (abstract)",70%
same,effect on bacterial load in blood compared to the untreated group,[8],significantly reduced bacterial load
same,bacterial levels in blood at 24 h,[8],10^4−10^5 CFU/mL
same,bacteria in blood at 48 h,[8],a significant proportion of mice treated with SCN were free of bacteria
same,SCN-derived metabolites in murine plasma,[9]; by HPLC,not detected
same,AUC0-12h,[9]; [13],5.0 ± 0.0 µg·h/mL
same,Cmax,[9]; [13],1.6 ± 0.3 µg/mL
same,Cmin,[9]; [13],0.3 ± 0.04 µg/mL
same,Tlast,[9]; [13],9.0 ± 1.4 h
same,Tmax,[9]; [13],60 ± 0 min
same,t1/2,[9]; [13],468 ± 144 min
same,AUC0-24h,"[9]; mouse serum, single s.c. dose 40 mg/kg (seconeolitsine) or 50 mg/kg (levofloxacin), twice the AUC0-last",10.0 ± 0.1 µg·h/mL
same,binding to plasma proteins,plasma proteins; 1 µg/mL,40%
same,binding to plasma proteins,plasma proteins; 50 µg/mL,80%
same,"harm to non-infected mice (survival, aspect, breathing, hair, eyes, appetite, movement, weight)",[10],not harmful
same,hydrosolubility,Hydrosolubility,poor hydrosolubility
same,concentration inhibiting S. pneumoniae Topo I activity in vitro,S. pneumoniae Topo I,~ 10 µM
same,concentration inhibiting cell growth,S. pneumoniae,~ 10 µM
same,effect on human cell viability,human cell,without affecting human cell viability
